Consider two compounds from US20150283127A1, “SAQUINAVIR-NO FOR IMMUNOMODULATION” (ONCONOX APS, priority 2012, published 2015).

Marks after values point to notes of the source that are not given here.

What all share (format): cell-based, mouse
Experiment [1] concerns murine SPC. The experiment in a line: Cytokine generation (ELISA) in ConA-stimulated murine SPC. The settings on record: for Effects on cytokines at low concentrations: unfractionated spleen cells and/or purified murine CD4 T cells, concentrations of 2.5 and 5 mM. From the text: (§1) Experimental animals (C57BL/6 mice, BALB/c mice and Dark Agouti rats) were obtained from the Animal House Facility of the Institute for Biological Research “Sinisa Stanković”, Belgrade, Serbia. Spleen cells (SPC) were isolated from murine spleens and lymph node cells (LNC) were obtained from rat cervical lymph nodes of untreated animals. Draining lymph node cells (DLNC) were obtained from popliteal lymph nodes 8-10 days after immunization of rats with myelin basic protein (guinea pig MBP, kind gift from professor Alexander Fluegel, University of Goettingen, Germany) and complete Freund's adjuvant (CFA, Difco, Detroit, Mich.). The organs were mechanically disrupted, passed through 40-μm nylon mesh filter and the resulting suspension was collected by centrifugation. Red blood cells from single cell suspensions obtained from spleens were lysed using RBC Lysis Buffer (eBioscience, San Diego, Calif.). CD4+ cells were purified from SPC using biotin conjugated antibody specific for CD4 (eBioscience) and IMag SAv particles plus (BD Biosciences, San Diego, Calif.). Obtained purity of CD4 population was more than 97% as determined by flow cytometry. SPC and LNC were seeded at 5×10^6/ml/well, DLNC at 2.5×10^6/ml/well and CD4+ cells at 1×10^6/ml/well of 24-well plates. Cells infiltrating spinal cords (SC) were obtained from SC of rats immunized with MBP+CFA at the time when rats suffered from severe clinical signs of experimental autoimmune encephalomyelitis (EAE). Rats were perfused with sterile PBS, SC were homogenized, adjusted to 30% Percoll (Sigma-Aldrich) and overlaid on 70% Percoll gradient. Following centrifugation at 870 g for 50 min the SC cells (SCC) were recovered from the […] Percoll interface and washed in RPMI-1640 medium. SCC were seeded at 0.5×106/200 μl/well of 96-well plates. SPC and LNC were stimulated with 2.5 μg/ml concanavalin A (ConA, Sigma-Aldrich), DLNC with MBP (10 ng/ml), CD4+ cells with anti-CD3 and anti-CD28 antibody (1 μg/ml each, both from eBioscience) and SCC were left untreated.
Cytokine concentration in cell culture supernatants was determined by sandwich ELISA using MaxiSorp plates (Nunc, Rochild, Denmark) and anti-cytokine paired antibodies according to the manufacturer's instructions. Samples were analyzed in duplicate for murine/rat IL-17, murine IL-10, murine TNF, murine IL-4 (eBioscience), murine IFN-γ, rat IFN-γ, rat IL-4 (R&D, Minneapolis, Minn.), rat IL-10 and rat TNF (BD Biosciences). The results were calculated using standard curves made on the basis of known concentrations of the appropriate recombinant cytokines.
In order to investigate the potential of Saq-NO to modulate cytokine production in immune cells, rat LNC were stimulated with ConA in the presence of various concentrations of Saq-NO for 24 hours and the levels of IFN-g, IL-4, IL-17, IL-10 and TNF were determined in cell-free culture supernatants. […] Effects of Saq-NO on the cytokine generation were examined in murine SPC, as well. Here, Saq-NO was applied in parallel with Saq and their influence on the cytokine generation and cell viability was compared. Further, two strains of mice were used, i.e. BALB/c and C57BL/6 mice which are prototypical Th2 and Th1 mice, respectively (Lohoff et al., 1998). […] Moreover, the influence of Saq-NO on the cytokines was evident with concentrations of the agent that had no effect on SPC viability (FIG. 2).

Experiment [2] concerns S6 phosphorylation (S6 kinase activity). The experiment in a line: S6 phosphorylation in murine CD4+ cells (immunoblot). The settings on record: anti-CD3 and anti-CD28, 24 hours. Here is the method:
Whole-cell lysates were prepared in a solution containing 62.5 mM Tris-HCl (pH 6.8, 2% w/v sodium dodecyl sulfate (SDS), 10% glycerol, 50 mM dithiothreitol (DTT), 0.01% w/v bromophenol blue, 1 mM phenylmethanesulphonyl fluoride or phenylmethylsulphonyl fluoride (PMSF), 1 μg/ml aprotinine, 2 mM EDTA and samples containing 20 μg of proteins (measured by Lowry protein assay) were electrophoresed on a 12% SDS-polyacrylamide gel. The samples were electro-transferred to polyvinylidene difluoride membranes at 5 mA/cm2, using semi-dry blotting system (Fastblot B43, Biorad, Muenchen, Germany). The blots were blocked with 5% w/v nonfat dry milk in PBS 0.1% Tween-20 and probed with specific antibodies to S6 and phosphorylated-S6 (Ser240/244) at 1:500 dilution (both from Cell Signaling Technology, Boston, Mass.), followed by incubation with secondary antibody at 1:10000 dilution (ECL donkey anti-rabbit horseradish peroxidase (HRP)-linked, GE Healthcare, Buckinghamshire, England, UK). […]
In an attempt to determine intracellular signaling that might be responsible for the observed influence of Saq-NO on the cytokines generation, level of S6 phosphorylation as the measure of S6 kinase activity was detected by immunoblot. CD4+ cells were stimulated with anti-CD3 and anti-CD28 in the presence of Saq-NO or Saq for 24 hours and cell lysates were subsequently obtained and analyzed.

Experiment [3] concerns murine SPC. The experiment in a line: Apoptosis in murine SPC, Annexin V-FITC staining and cytofluorimetry.
Excerpt: as §1
The cells positive for Annexin V-FITC were considered apoptotic. The stained cells were acquired by a FACSCalibur cytometer (BD Biosciences) and analyzed using CellQuest Software (BD Biosciences).

With `CC(C)(C)NC(=O)C1C[C@@H]2CCCC[C@@H]2CN1CC(O[N+](=O)[O-])[C@H](Cc1ccccc1)NC(=O)C(CC(N)=O)NC(=O)c1ccc2ccccc2n1` (stereo partly shown) [Saq-NO, nitric ester of Saquinavir], the “Production of IFN-g, IL-4, IL-17, TNF” value in experiment [1] (murine SPC) is recorded as “inhibited”. In addition, the “Production of IL-10” value in experiment [1] (murine SPC) is “stimulated”. For the same compound, in experiment [1] (murine SPC of BALB/c and C57BL/6 mice, ConA), the “Effect on the release of IFN-g, IL-4, IL-17, IL-10 and TNF, compared with Saq” value is “more profound effect”. Also, the “Effects on cytokines at low concentrations” value in experiment [1] is listed as “already observable”. Besides, the S6 phosphorylation entry in experiment [2] is recorded as “diminished”. The “% of AnnV+ cells” value is recorded as 30.2 +/− 7.5% in experiment [3] (C 5 μg/ml), 38.4 +/− 4.8% in experiment [3] (C 10 μg/ml) and 44.5 +/− 11.5% in experiment [3] (C 20 μg/ml).

For the compound `CC(C)(C)NC(=O)[C@@H]1C[C@@H]2CCCC[C@@H]2CN1C[C@@H](O)[C@H](Cc1ccccc1)NC(=O)[C@H](CC(N)=O)NC(=O)c1ccc2ccccc2n1` [Saq, (2S)—N-[(2S,3R)-4-[(3S)-3-(tert-butylcarbamoyl)-decahydroisoquinolin-2-iy]-3-hydroxy-1-phenylbutan-2-il]-2-(quinolin-2-ylformamido)butanediamide, reference compound], in experiment [1], the “Effects on cytokines at low concentrations” value is on record as “No effects”. For the same compound, the S6 phosphorylation entry in experiment [2] is reported as “much weaker”. Also, the “% of AnnV+ cells” value in experiment [3] (C 5 μg/ml) is given as 27.5 +/− 4.8%; in experiment [3] (C 10 μg/ml), 31.6 +/− 6.4%; in experiment [3] (C 20 μg/ml), 49.8 +/− 4.8* %.
